Reference: patent US20110082204A1, “N-alkylcarbonyl-amino acid ester and N-alkylcarbonyl-amino lactone compounds and their use” (priority 2006, published 2011)
Blank lines part the entries; values can stand above or below the molecule they belong to.

How the values were obtained:
[1] = tested on: eyelids/ocular surface; test: Cooling after wiping closed eyelids with a towelette; type: in vivo, human; settings: for Duration of cooling, Eyelids/Ocular Surface: eye wipes, 1 mg/ml in 5%-95% v/v ethanol-distilled water
Description: A second method of testing was to take a towelette saturated with a test solution of the cooling agent and to wipe the towelette over the dosed eyelids. The presence or absence of cooling (or irritanty, if applicable) sensations was then recorded at 10 minute intervals until the cessation of coolness in two successive intervals.
(§1) For testing of cooling compounds delivered to the eyelids with a towelette, the following procedures were used in the experiments of Table 3 and in Study 5 and 6. Three ml of liquid suspension or solution in distilled water was added to a 0.4 g cotton rectangle (50 mm×60 mm) (CS-being, Daisan Cotton, Japan) and individually sealed with a vaccuum apparatus (Foodsaver®, Jarden Corp.). Samples were stored in the freezer or refrigerator and thawed to room temperature before use. Wiping with the cotton pad delivers 40 to 45 μl of liquid composition to the eyelids ([…] to 22 μl per eye). So, if the concentration of the test substance was 1 mg/ml, the dose delivered to both eyes is a total of ˜40 to […], or ˜20 μg per eye. This method allows a reliable delivery of test substances because the dissolved or suspended particles in solution are evenly dispersed on the cotton pad in an excess volume of liquid. The presence or absence of cooling sensations was noted as being present or absent at 5 to 10 min intervals until no coolness was noticeable in two successive test intervals. Only the duration of cooling on the ocular surface was recorded, without an attempt to quantify the intensity of the sensation.

[2] = tested on: allergic conjunctivitis; test: Study 5: eye wipes in allergic conjunctivitis; type: in vivo, human
Description: as §1
A laboratory scientist suffered from seasonal allergic conjunctivitis. This condition was severely aggravated when […] started doing experiments with laboratory animals (rats and mice) and […] became sensitized to the associated allergens. The conjunctivitis was not relieved by oral or topical eye drop antihistamines and the subject was reluctant to consider the use of anti-inflammatory steroid ointments. Upon examination, their eyes were blood-shot and watery and they kept rubbing their eyelids with their fingers even though they knew this action may further aggravate the itch and discomfort. They volunteered to try eye wipes containing 1.0 mg/ml of (R)-2-[((1 R,2S,5R)-2-isopropyl-5-methyl-cyclohexanecarbonyl)-amino]-acetic isopropyl ester (Gly-OiPr, No. 2, in table 1). The relief of itch and discomfort was obtained within 5 minutes and lasted for at least four hours.

[3] = Log P of tested compounds; type: physicochemical
[4] = tested on: periorbital pain; test: Study 6: eye wipes in persistent periorbital pain; type: in vivo, human; settings: eye wipes 1.0 mg/ml, one patient, three occasions
Description: as §1
A person suffered from “dry eyes” or keratoconjunctivitis sicca which was managed by artificial tears and eye drops containing lubricants. […]

[5] = tested on: philtrum skin; test: Cooling sensation after ointment applied to philtrum skin; type: in vivo, human; settings: for Duration of cooling, Philtrum Skin: 5 mg/ml in Aquaphor ointment on philtrum skin; for duration of cooling (FIG. 1): 40 to 70 mg of 1% wt/vol (10 mg/ml) ointment on skin above the upper lips
Source text: A reliable place for topical application is the skin above the upper lip (above the vermilion border of the lips), on the philtrum, lateral to the philtrum until the nasolabial folds, and on the lower nostrils (subnasale). This part of the face is known to be densely innervated with cold receptors, second only to the surfaces of the eyeball and anogenitalia.
The intensity of the subjective skin sensation is rated as 0, 1, 2 or 3 with: 0 as no change; 1 as slight coolness, cold, or tingling; 2 as clear-cut signal of coolness, cold, or tingling; and 3 as robust cooling or cold. The intervals for recording sensations are 5 to 10 minutes, until two successive zeroes are obtained. The results (shown in FIG. 1) are averaged values of 4 to 6 separate trials in the same individual. The data are plotted using SigmaPlot® (Systat Software, Point Richmond Calif.) and a smoothing function with a negative exponential was used for analysis and statistical fit of the results. Confirmatory trials of cooling action of the long-acting NACE compounds were obtained in 2 to 4 individuals but not quantified for some because of the large number of chemicals that were evaluated
(§2) The onset of drug action is taken as the time to reach 2 units of coolness intensity, and offset of drug action is the time when coolness intensity drops below 2, after previously surpassing 2 units. The duration of cooling action is defined as the offset time minus the onset time. […] The quality of the sensation is noted, for example, as pure refreshing coolness, or if the sensation is accompanied by irritation (stinging or burning). The quality of the sensation is not rated for intensity.
For bioassay on the skin, approximately 30 mg was stirred and dissolved in 3 g of warm liquid Aquaphor® ointment to a yield 5 to 10 mg/ml (0.5% to 1.0 wt/vol) ointment. After cooling, 40 to 70 mg of the solid ointment was placed on the tip of a plastic stick and applied to the skin above the upper lip, on the philtrum, and lateral to the philtrum, up to the nasolabial folds, of test subjects and the onset and duration of cooling sensations noted.
The intensity of the subjective skin sensation was rated as 0, 1, 2 or 3 with: 0 as no change; 1 as slight coolness, cold, or tingling; 2 as clear signal of coolness, cold, or tingling; and 3 as robust cooling or cold. The intervals for recording sensations were 5 to 10 minutes, until two successive zeroes were obtained. The results (shown in FIG. 1) are averaged values of 4 to 6 separate trials in the same individual. The data are plotted using SigmaPlot® (Systat Software, Point Richmond, Calif., USA) and a smoothing function with a negative exponential was used for analysis and statistical fit of the results.
as §2, with “was” for “is”, “was also noted: such” for “is noted, for example,”
For the results in FIG. 1, the test compounds were singly applied to the skin above the upper lips at a 40 to 70 mg dose of a 1% wt/vol (10 mg/ml) ointment. Subsequently, for the results shown in Table 3, the test dose on the philtrum was reduced to a 0.5% wt/vol (5 mg/ml) ointment. The reason for choosing a lower dose was to increase the number of trials per individual and to have a reduced chance of substances accumulating in the skin.

[6] = tested on: dorsal surface of the tongue; test: Tongue cooling threshold, impregnated filter paper (Watson et al.); type: in vivo, human; settings: summary comparison
Description: Watson et al. (U.S. Pat. No. 4,178,459) tested the properties of N-substituted p-menthane carboxamides. However, the branched chain alkylesters such as the isopropyl analogs described here in the Gly and D-Ala configuration of Formula 1 were never synthesized by Watson et al. Bioactivity of the Watson et at compounds were tested by putting filter paper (1×1 cm), impregnated with a known amount of compound, onto the dorsal surface of the tongue of the volunteer test subject. After 30 seconds, the subject was required to report presence or absence of a cooling effect. […] The average threshold of (−)-menthol for 6 subjects was 0.25 μg, but there was a 100-fold variation in individual sensitivity. The potencies of coolness signals detected from the dorsal surface of the tongue are not correlated to skin sensations of coolness may be confounded by gustatory, olfactory, and other variables, as well as by dilution from saliva.

[7] = tested on: periorbital skin; test: Ointment applied to periorbital skin: coolness, eye irritancy, alerting (Study 3); type: in vivo, human
Source text: The ointment was also applied to the periorbital skin (upper and lower eyelids and on skin adjacent to the lateral canthus) for tests of irritancy near the eyes, and the subject is asked if irritation is present or absent. The intensity of the eye sensation is not rated.
For tests of irritancy near the eyes in Study 3 and 4, the ointment was applied to the periorbital skin (upper and lower eyelids and on skin adjacent to the lateral canthus), and the subject asked if irritation is present or absent. The intensity of the eye sensation is not rated, but just noted as being present or absent
A 1% preparation of 2-isopropyl-5-methyl-cyclohexanecarbonyl D-alanine methyl ester in Aquaphor® ointment was applied bilaterally to the periorbital area of four individuals. […] This experiment was then repeated three days later in the evening with the same individuals whose occupations required daylong activities before a computer screen.

[8] = tested on: dorsal surface of the tongue; settings: threshold amount producing cooling on tongue of human volunteers; values from Watson US 04178459; cited from earlier work
[9] = tested on: sleepiness and fatigue; test: Study 4: eye wipes against sleepiness and fatigue; type: in vivo, human; settings: for onset and intensity of awakening effect: eye wipes, compared with the other analogs
Description: as §1
Three high-powered business executives who regularly spent long hours at the negotiating tables or at meetings felt “burnt out” by their professional activities and frequently felt tired and sleepy-eyed in the social arena. They volunteered to try eye wipes containing 1.0 mg/ml of (R)-2-[((1R,2S,5R)-2-isopropyl-5-methyl-cyclohexanecarbonyl)-amino]-propionic acid isopropyl ester (D-Ala-OiPr, No. 1, in table 1) to see if the eye wipes will refresh and awaken their interest during meetings. […] They became alert and vigilant and more pro-active in their social milieu.

[10] = tested on: face; test: Study 2: towelette used to wipe the face in hot weather; type: in vivo, human; settings: for duration of pleasant cooling sensations: 10% propylene glycol/90% water
Description: 2-Isopropyl-5-methyl-cyclohexanecarbonyl D-alanine methyl ester was dissolved in warm 10% propylene-glycoV90% distilled water solution to give a concentration of either 0.1 or 0.5% wt/vol (1 or 5 mg/mL). Six to seven milliliters of these solutions were then applied with a pipette onto a paper napkin (Luncheon Napkins, Kirkland Signature brand from Costco, Inc.) The napkin was 1-ply with a 30.4×29.5 cm dimension. Each napkin was then hermetically sealed in a plastic envelope (Foodsaver by Tilia). On two separate occasions involving golfing trips to Los Angeles, Calif., USA, where air temperatures exceeded […] (90° F.), these towelettes were used to wipe the face. Pleasant cooling sensations were obtained that lasted for about 10 minute for the 0.1% concentration towelette and about 60 minutes for the 0.5% towelette.

[11] = eye wipes 1.0 mg/ml, one subject
[12] = 1% in Aquaphor ointment, periorbital area, four individuals

logP [3]: 3.3
SMILES: CC(C)OC(=O)CNC(=O)[C@@H]1C[C@H](C)CC[C@H]1C(C)C [Gly iPr Ester, (R)-2-[((1R,2S,5R)-2-isopropyl-5-methyl-cyclohexanecarbonyl)-amino]-acetic acid isopropyl ester]
Duration of cooling, Eyelids/Ocular Surface [1]: 300 min
duration of relief of itch and discomfort [2, 11]: at least four
time to relief of itch and discomfort [2, 11]: ≤ 5 min
over-all itchiness and redness ([2]; wipes used as needed for three days): over-all itchiness and redness were reduced significantly
relief of periorbital pain [4]: immediate relief
Duration of cooling, Philtrum Skin [5]: 27 min

logP [3]: 3.7
SMILES: CC(C)OC(=O)[C@@H](C)NC(=O)[C@@H]1C[C@H](C)CC[C@H]1C(C)C [D-Ala iPr Ester, (R)-2-[((1R,2S,5R)-2-isopropyl-5-methyl-cyclohexanecarbonyl)-amino]-propionic acid isopropyl ester]
Duration of cooling, Eyelids/Ocular Surface [1]: 360 min
Duration of cooling, Philtrum Skin [5]: 34 min
effect on sleepiness and fatigue ([9]; eye wipes 1.0 mg/ml, three executives): the sense of sleepiness and fatigue was reduced for the next several hours

The next lines start with the molecule.

SMILES: CC1CCC(C(C)C)C(O)C1 (single isomer, unassigned; (-)) [(−)-menthol, reference compound]
Acts for >1 hour at 1 mg/ml ([1]; 1 mg/ml): no
Cooling on tongue [6]: yes
Eye Irritancy ([7]; summary comparison): yes
Threshold tongue [8]: 0.25 µg
duration of cooling (FIG. 1) [5]: 0.3 h
Cooling on skin of face ([5]; summary comparison): yes
“perfect” cooling experience ([5]; summary comparison): no

SMILES: CCOC(=O)[C@@H](C)NC(=O)[C@@H]1C[C@H](C)CC[C@H]1C(C)C [D-Ala Et Ester, (R)-2-[((1R,2S,5R)-2-isopropyl-5-methyl-cyclohexanecarbonyl)-amino]-propionic acid ethyl ester]
Duration of cooling, Eyelids/Ocular Surface [1]: 180 min
logP [3]: 3.1
Duration of cooling, Philtrum Skin [5]: 103 min
duration of cooling (FIG. 1) [5]: 2.4 h
onset and intensity of awakening effect [9]: faster onset and more intense awakening effect

SMILES: COC(=O)[C@@H](C)NC(=O)[C@@H]1C[C@H](C)CC[C@H]1C(C)C [D-Ala Me Ester, (R)-2-[((1R,2S,5R)-2-isopropyl-5-methyl-cyclohexanecarbonyl)-amino]-propionic acid methyl ester]
Duration of cooling, Eyelids/Ocular Surface [1]: 120 min
duration of pleasant cooling sensations ([10]; 0.1% wt/vol (1 mg/mL) towelette): about 10 minute
eye irritation ([10]; 0.1 or 0.5% towelette): No eye irritation was observed
duration of pleasant cooling sensations ([10]; 0.5% wt/vol (5 mg/mL) towelette): about 60 minutes
Onset of coolness on the skin [7, 12]: 1 min
duration of alerting effect [7, 12]: about one
duration of coolness on the skin (average) [7, 12]: 30 min
irritation of skin / eye surfaces ([7]; ointment on periorbital area): No irritation of the eye surfaces was noted
logP [3]: 2.8
Duration of cooling, Philtrum Skin [5]: 77 min
duration of cooling (FIG. 1) [5]: 1.9 h
onset and intensity of awakening effect [9]: faster onset and more intense awakening effect
